# Experiments:
# [1] = Half life in Sprague-Dawley rat at 1 mg/kg, iv measured for 0.25 to 24 hrs by LC-MS/MS analysis; format: ADME, organism-based; settings: in vivo, time 0.25-24 hrs
# [2] = Intrinsic clearance in rat liver microsomes; format: ADME, Microsome; settings: read-out: CLH
# [3] = Intrinsic clearance in mouse liver microsomes; format: ADME, Microsome; settings: read-out: CLH
# in vivo [4] = settings: Sprague-Dawley, rat, plasma, po, 3 mg/kg
# Description: Drug concentration in plasma of Sprague-Dawley rat at 3 mg/kg, po measured after 4 hrs by LC-MS/MS analysis
# [5] = Protein binding in monkey plasma; format: ADME, cell-free, Macaca mulatta; settings: rhesus monkey, read-out: PPB (converted)
# in vivo [6] = settings: Sprague-Dawley, rat, liver, po, 3 mg/kg
# Description: Drug concentration in liver of Sprague-Dawley rat at 3 mg/kg, po measured after 0.25 hrs by LC-MS/MS analysis
# Cytochrome P450 2B6 = biological target: T1, Cytochrome P450 2B6 (Homo sapiens, UniProt P20813); test: Inhibition of CYP2B6 (unknown origin); format: ADME
# T1 sequence (P20813 whole entry): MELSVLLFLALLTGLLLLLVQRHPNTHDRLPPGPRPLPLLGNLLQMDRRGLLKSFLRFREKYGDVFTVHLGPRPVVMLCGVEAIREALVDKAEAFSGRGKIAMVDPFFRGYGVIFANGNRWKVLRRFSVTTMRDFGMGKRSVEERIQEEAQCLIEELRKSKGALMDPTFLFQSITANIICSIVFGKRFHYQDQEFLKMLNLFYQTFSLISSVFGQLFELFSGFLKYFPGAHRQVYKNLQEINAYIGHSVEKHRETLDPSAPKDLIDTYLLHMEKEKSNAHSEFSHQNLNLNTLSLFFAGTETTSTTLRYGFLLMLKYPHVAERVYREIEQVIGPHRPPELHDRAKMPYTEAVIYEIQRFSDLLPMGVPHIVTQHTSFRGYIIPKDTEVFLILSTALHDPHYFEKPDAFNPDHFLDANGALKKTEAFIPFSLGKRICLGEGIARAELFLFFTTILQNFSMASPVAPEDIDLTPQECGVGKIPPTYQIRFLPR
# [7] = Clearance in Sprague-Dawley rat at 1 mg/kg, iv measured for 0.25 to 24 hrs by LC-MS/MS analysis; format: ADME, organism-based; settings: in vivo, time 0.25-24 hrs
# [8] = Protein binding in rat plasma; format: ADME, cell-free; settings: read-out: PPB (converted)
# Acetyl-CoA carboxylase 2 = Acetyl-CoA carboxylase 2 (Homo sapiens, UniProt O00763)
# Description: Inhibition of recombinant human ACC2 using acetyl-Co A as substrate incubated for 60 mins in presence of ATP by ADP-Glo assay
# [9] = Biodistribution in liver of 12 hr-fasted male wild-type Sprague-Dawley rat at 3 mg/kg, po measured after 4 hrs by LC-MS/MS analysis; format: ADME, organism-based; settings: in vivo
# [10] = Inhibition of fatty acid synthesis in human HepG2 cells preincubated for 1.5 hrs followed by [14C] acetate addition measured after 1.5 hrs by liquid scintillation counter analysis; format: functional, cell-based
# [11] = Suppression of Col1A1 mRNA expression in TGF-beta1-treated human LX2 cells incubated for 24 hrs by qPCR analysis; format: functional, cell-based; settings: LX-2, 24 h
# [12] = Mutagenicity in Salmonella typhimurium by mini-Ames test; format: toxicity; settings: salmonella enterica subsp. enterica serovar typhimurium
# [13] = Toxicity in Sprague-Dawley rat model of DEN-induced liver fibrosis assessed as animal mortality at 3 to 10 mg/kg, po qd treated for 4 weeks; format: organism-based; settings: in vivo, 672 h, dose 3-10 mg/kg
# [14] = Toxicity in Sprague-Dawley rat model of DEN-induced liver fibrosis assessed as drug tolerance at 3 to 10 mg/kg, po qd treated for 4 weeks; format: organism-based; settings: in vivo, 672 h, dose 3-10 mg/kg
# [15] = Tmax in Sprague-Dawley rat at 3 mg/kg, po measured for 0.25 to 24 hrs by LC-MS/MS analysis; format: ADME, organism-based; settings: in vivo, time 0.25-24 hrs
# [16] = Stability of compound assessed as remaining parent compound by measuring retention time; format: physicochemical
# Cytochrome P450 2C9 = Cytochrome P450 2C9 (Homo sapiens, UniProt P11712); test: Inhibition of CYP2C9 (unknown origin); format: ADME
# Sequence of Cytochrome P450 2C9 (P11712 whole entry): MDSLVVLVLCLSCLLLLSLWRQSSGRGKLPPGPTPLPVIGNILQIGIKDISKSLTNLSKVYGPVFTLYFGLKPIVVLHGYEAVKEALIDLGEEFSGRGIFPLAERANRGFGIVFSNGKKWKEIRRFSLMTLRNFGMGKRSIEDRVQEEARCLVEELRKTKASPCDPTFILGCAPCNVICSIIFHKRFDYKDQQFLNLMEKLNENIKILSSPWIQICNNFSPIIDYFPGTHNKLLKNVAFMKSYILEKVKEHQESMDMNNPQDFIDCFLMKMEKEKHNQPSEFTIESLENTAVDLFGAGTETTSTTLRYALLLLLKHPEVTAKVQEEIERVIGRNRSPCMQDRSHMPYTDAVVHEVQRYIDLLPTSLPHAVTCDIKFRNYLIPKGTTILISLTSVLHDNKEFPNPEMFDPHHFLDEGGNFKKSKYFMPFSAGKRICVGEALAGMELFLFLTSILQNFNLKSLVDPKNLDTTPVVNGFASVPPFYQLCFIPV
# Sequence of Acetyl-CoA carboxylase 2 (O00763 whole entry): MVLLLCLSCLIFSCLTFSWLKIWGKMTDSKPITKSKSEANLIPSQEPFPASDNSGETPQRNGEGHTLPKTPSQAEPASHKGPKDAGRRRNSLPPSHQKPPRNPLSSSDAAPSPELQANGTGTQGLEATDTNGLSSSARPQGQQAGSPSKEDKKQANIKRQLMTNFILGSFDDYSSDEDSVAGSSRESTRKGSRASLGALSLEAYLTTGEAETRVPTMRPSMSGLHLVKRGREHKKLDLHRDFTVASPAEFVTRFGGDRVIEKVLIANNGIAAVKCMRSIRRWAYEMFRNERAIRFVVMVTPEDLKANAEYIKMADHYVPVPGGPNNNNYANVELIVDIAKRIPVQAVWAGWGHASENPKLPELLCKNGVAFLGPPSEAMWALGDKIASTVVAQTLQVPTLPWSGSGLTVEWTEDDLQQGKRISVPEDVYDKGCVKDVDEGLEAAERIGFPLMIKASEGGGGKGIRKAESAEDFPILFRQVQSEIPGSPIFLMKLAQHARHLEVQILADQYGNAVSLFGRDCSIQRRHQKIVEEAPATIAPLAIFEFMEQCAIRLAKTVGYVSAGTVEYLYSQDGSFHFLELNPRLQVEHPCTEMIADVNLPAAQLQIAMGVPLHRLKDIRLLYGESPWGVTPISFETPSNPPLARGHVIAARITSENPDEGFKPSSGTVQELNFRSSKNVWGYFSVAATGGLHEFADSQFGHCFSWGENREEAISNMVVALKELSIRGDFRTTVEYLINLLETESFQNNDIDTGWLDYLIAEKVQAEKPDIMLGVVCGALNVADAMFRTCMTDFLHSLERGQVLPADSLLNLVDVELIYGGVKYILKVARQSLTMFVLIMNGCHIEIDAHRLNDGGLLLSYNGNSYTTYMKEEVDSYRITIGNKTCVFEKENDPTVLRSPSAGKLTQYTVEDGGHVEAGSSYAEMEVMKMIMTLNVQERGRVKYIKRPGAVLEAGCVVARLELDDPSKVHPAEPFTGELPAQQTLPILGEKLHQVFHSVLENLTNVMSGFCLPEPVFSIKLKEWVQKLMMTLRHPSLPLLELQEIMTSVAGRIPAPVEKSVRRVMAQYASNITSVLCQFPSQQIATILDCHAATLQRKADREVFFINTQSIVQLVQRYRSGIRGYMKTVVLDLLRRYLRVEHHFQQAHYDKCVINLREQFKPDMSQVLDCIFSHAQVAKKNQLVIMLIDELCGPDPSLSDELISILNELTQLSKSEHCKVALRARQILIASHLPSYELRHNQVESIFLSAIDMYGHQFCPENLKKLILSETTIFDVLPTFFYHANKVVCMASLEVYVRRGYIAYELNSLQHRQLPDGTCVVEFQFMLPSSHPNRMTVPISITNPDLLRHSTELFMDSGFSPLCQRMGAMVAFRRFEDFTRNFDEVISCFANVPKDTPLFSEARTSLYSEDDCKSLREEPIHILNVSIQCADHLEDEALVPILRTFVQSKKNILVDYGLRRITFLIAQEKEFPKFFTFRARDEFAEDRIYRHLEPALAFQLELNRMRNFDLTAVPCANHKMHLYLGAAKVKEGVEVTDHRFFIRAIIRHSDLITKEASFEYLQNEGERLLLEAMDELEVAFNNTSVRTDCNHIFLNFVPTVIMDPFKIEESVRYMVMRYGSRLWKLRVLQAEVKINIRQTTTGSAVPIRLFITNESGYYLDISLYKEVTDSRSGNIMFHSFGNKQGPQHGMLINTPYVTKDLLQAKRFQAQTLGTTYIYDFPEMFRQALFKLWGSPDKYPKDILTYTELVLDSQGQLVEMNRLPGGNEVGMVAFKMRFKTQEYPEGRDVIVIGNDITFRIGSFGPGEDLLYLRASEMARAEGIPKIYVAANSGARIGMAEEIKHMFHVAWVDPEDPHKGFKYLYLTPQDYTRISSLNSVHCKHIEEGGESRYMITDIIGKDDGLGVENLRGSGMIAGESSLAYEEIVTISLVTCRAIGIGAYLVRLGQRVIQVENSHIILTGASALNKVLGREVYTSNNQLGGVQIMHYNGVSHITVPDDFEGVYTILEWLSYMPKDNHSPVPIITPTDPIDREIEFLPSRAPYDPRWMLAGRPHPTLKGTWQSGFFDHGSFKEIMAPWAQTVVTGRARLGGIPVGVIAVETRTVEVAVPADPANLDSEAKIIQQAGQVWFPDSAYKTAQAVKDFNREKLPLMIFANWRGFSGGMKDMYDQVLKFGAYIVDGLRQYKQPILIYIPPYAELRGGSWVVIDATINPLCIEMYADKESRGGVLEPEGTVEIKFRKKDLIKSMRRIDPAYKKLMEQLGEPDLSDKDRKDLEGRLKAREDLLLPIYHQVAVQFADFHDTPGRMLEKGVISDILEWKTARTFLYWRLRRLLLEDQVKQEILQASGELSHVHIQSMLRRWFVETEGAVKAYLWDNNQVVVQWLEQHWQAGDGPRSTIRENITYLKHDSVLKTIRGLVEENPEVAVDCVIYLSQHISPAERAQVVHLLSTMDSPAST
smiles,measurement,setting,value
COc1ccccc1[C@H](Cn1c(=O)n([C@H]2C[C@@](C)(C(=O)O)C2)c(=O)c2c(C)c(-c3ncco3)sc21)OC1CCOCC1,half-life,[1],30 min
same,CLint scaled,[2],< 17.3 mL/min/kg
same,CLint scaled,[3],44.4 mL/min/kg
same,concentration at 4 h,in vivo [4],72.8 ng/mL
same,fraction unbound,[5],0.043
same,concentration at 0.25 h,in vivo [6],3390 ng/mL
same,IC50,Cytochrome P450 2B6,> 30000 nM
same,clearance,[7],63.3 mL/min/kg
same,fraction unbound,[8],0.029
same,IC50,Acetyl-CoA carboxylase 2,3.74 nM
same,Drug uptake,[9],Active
same,IC50,[10],6.9 nM
same,IC50,[11],507 nM
same,Activity,[12],Non-toxic
same,Activity,[13],Non-toxic
same,Activity,[14],Non-toxic
same,Tmax,[15],24 min
same,Retention_time,[16],10.61 min
same,IC50,Cytochrome P450 2C9,> 30000 nM
